Laboratory results taken from ChEMBL document CHEMBL5543110, “Engineering of a Biologically Active Glycosylated Glucagon-Like Peptide-1 Analogue” (J Med Chem, 2024).
Calls of active or inactive are those of the source. The calls are words filed in the database; no cut-off is given here.

How the values were obtained:
[1] = tested on: Mus musculus; experiment: Hypoglycemic activity in six hrs fasted C57BL6/J mouse assessed as reduction in blood glucose level at 30 nmol/kg, sc measured upto 120 mins post injection by glucometer analysis; assay type: functional, organism-based
[2] = tested on: Mus musculus; experiment: Hypoglycemic activity in six hrs fasted C57BL6/J mouse assessed as improvement in glucose disposal at 30 nmol/kg, sc pre-administered with compound for 60 mins followed by glucose addition and measured upto 120 mins; assay type: functional, organism-based; conditions: time <= 180.0 min
[3] = molecular target: Glucagon-like peptide 1 receptor (Homo sapiens) (UniProt P43220); experiment: Agonist activity human GLP-1R stably expressed in HEK293-A cells assessed as […] in cAMP accumulation incubated for 30 mins by fluorescence resonance energy transfer analysis; assay type: functional, cell-based; conditions: filed as agonist
Chain of Glucagon-like peptide 1 receptor (Homo sapiens) (P43220 whole entry): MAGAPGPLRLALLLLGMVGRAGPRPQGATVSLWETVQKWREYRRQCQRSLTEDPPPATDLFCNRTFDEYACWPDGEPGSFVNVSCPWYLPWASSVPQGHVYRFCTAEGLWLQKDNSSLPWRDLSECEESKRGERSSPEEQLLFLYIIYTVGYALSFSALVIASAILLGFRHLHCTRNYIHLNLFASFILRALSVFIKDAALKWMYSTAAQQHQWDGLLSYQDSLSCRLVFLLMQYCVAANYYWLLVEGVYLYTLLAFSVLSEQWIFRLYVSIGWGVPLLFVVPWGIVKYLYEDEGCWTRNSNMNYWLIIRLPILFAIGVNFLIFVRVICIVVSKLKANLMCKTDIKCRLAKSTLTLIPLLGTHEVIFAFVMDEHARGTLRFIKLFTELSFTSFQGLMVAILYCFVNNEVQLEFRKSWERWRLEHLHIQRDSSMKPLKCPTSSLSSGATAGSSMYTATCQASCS

Row | Compound | Activity [1] | Activity [2] | Activity [3]
1 | SEMAGLUTIDE | Active | – | –
2 | CC[C@H](C)[C@H](NC(=O)[C@H](Cc1ccccc1)NC(=O)[C@H](CCC(=O)O)NC(=O)[C@H](CC(=O)N[C@@H]1O[C@H](CO)[C@@H](O[C@@H]2O[C@H](CO)[C@@H](O[C@@H]3O[C@H](CO[C@H]4O[C@H](CO)[C@@H](O)[C@H](O)[C@@H]4O[C@@H]4O[C@H](CO)[C@@H](O[C@@H]5O[C@H](CO[C@]6(C(=O)O)C[C@H](O)[C@@H](NC(C)=O)[C@H]([C@H](O)[C@H](O)CO)O6)[C@H](O)[C@H](O)[C@H]5O)[C@H](O)[C@H]4NC(C)=O)[C@@H](O)[C@H](O[C@@H]4O[C@H](CO)[C@H](O)[C@@H](O)[C@H]4O[C@@H]4O[C@H](CO)[C@@H](O[C@@H]5O[C@H](CO[C@]6(C(=O)O)C[C@H](O)[C@@H](NC(C)=O)[C@H]([C@H](O)[C@H](O)CO)O6)[C@H](O)[C@H](O)[C@H]5O)[C@H](O)[C@H]4NC(C)=O)[C@@H]3O)[C@H](O)[C@H]2NC(C)=O)[C@H](O)[C@H]1NC(C)=O)NC(=O)[C@H](C)NC(=O)[C@H](C)NC(=O)[C@H](CCC(N)=O)NC(=O)CNC(=O)[C@H](CCC(=O)O)NC(=O)[C@H](CC(C)C)NC(=O)[C@H](Cc1ccc(O)cc1)NC(=O)[C@H](CO)NC(=O)[C@H](CO)NC(=O)[C@@H](NC(=O)[C@H](CC(=O)O)NC(=O)[C@H](CO)NC(=O)[C@@H](NC(=O)[C@H](Cc1ccccc1)NC(=O)[C@@H](NC(=O)CNC(=O)[C@H](CCC(=O)O)NC(=O)C(C)(C)NC(=O)[C@@H](N)Cc1c[nH]cn1)[C@@H](C)O)[C@@H](C)O)C(C)C)C(=O)N[C@@H](C)C(=O)N[C@@H](Cc1c[nH]c2ccccc12)C(=O)N[C@@H](CC(C)C)C(=O)N[C@H](C(=O)N[C@@H](CCCNC(=N)N)C(=O)NCC(=O)N[C@@H](CCCNC(=N)N)C(=O)NCC(=O)O)C(C)C | Active | Active | Active
